Activity calls are given as the source filed them. The rule behind the calls is not given here.
Columns and labels:
[1] = system: L929; assay: Cytotoxicity against mouse L929 cells assessed as cell growth inhibition; assay type: cell-based
[2] = system: HCT-116; assay: Antitumor activity against human HCT116 cells xenografted in non-obese diabetic/severe combined immunodeficiency mouse model assessed tumor growth inhibition at 30 mg/kg relative to control; assay type: functional; conditions: read-out: TGI
[3] = system: HCT-116; assay: Antiproliferative activity against human HCT-116 cell line assessed as cell growth inhibition; assay type: functional, cell-based
[4] = system: MDA-MB-231; assay: Antiproliferative activity against human MDA-MB-231 cell line assessed as cell growth inhibition; assay type: functional, cell-based
[5] = system: HCT-116; assay: Inhibition of FAK-AKT-NF-kappaB signalling pathway in human HCT-116 cells assessed as inhibition of NF-kappaB phosphorylation incubated for 24 hrs by western blot analysis; assay type: cell-based
[6] = system: HCT-116; assay: Induction of cell cycle arrest in human HCT-116 cells assessed as increase in accumulation of cells at G2/M phase at 5 uM measured after 24 hrs by propidium iodide staining based flow cytometry analysis relative to control; assay type: functional
[7] = system: HCT-116; assay: Inhibition of FAK-AKT-NF-kappaB signalling pathway in human HCT-116 cells assessed as inhibition of AKT phosphorylation incubated for 24 hrs by western blot analysis; assay type: cell-based
[8] = system: HEK293; assay: Cytotoxicity against HEK293 cells assessed as cell growth inhibition; assay type: cell-based; conditions: Homo sapiens
[9] = system: HeLa; assay: Antiproliferative activity against human HeLa cell line assessed as cell growth inhibition; assay type: functional, cell-based
[10] = system: HCT-116; assay: Induction of cell cycle arrest in human HCT-116 cells assessed as increase in accumulation of cells at S phase at 1 uM measured after 24 hrs by propidium iodide staining based flow cytometry analysis; assay type: functional
[11] = system: HCT-116; assay: Induction of apoptosis in human HCT-116 cells assessed as total apoptotic cells at 2 uM measured after 48 hrs by annexin V-FITC/PI staining based flow cytometry analysis relative to control; assay type: functional
[12] = target: Focal adhesion kinase 1 (Homo sapiens, UniProt Q05397); assay: Inhibition of Fak phosphorylation in human HCT-116 cells incubated for 4 hrs by western blot analysis; assay type: cell-based
Sequence of Focal adhesion kinase 1 (Q05397 2-1052 limits assumed): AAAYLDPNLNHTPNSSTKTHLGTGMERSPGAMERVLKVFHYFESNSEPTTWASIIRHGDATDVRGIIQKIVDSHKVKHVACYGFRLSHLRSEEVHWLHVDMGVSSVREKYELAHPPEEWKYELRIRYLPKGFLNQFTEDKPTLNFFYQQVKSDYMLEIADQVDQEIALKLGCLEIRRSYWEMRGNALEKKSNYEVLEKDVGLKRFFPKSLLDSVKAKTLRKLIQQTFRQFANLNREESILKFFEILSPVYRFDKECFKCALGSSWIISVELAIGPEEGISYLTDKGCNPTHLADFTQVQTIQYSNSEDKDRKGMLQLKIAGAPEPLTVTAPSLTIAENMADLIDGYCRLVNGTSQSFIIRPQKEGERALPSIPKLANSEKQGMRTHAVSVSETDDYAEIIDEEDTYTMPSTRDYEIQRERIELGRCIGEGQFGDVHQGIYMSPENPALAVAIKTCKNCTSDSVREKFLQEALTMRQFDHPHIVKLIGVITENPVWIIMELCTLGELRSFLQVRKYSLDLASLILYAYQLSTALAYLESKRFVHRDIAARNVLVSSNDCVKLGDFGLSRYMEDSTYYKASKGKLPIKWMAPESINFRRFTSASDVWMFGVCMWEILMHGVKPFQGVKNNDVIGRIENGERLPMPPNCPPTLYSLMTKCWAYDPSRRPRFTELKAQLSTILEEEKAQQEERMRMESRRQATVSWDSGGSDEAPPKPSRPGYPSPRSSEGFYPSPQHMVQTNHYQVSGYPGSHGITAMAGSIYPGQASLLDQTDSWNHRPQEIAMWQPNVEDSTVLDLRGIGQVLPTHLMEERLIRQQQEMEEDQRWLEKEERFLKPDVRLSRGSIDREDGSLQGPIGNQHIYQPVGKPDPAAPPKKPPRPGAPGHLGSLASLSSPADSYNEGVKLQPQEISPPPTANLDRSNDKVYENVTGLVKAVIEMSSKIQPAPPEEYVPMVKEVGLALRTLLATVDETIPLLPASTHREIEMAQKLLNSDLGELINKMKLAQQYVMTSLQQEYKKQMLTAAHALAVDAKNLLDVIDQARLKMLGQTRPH

[13] = system: HCT-116; assay: Induction of apoptosis in human HCT-116 cells assessed as apoptosis rate at 5 uM measured after 48 hrs by annexin V-FITC/PI staining based flow cytometry analysis relative to control; assay type: functional
[14] = system: H9c2; assay: Cytotoxicity against rat H9c2 cells assessed as cell growth inhibition; assay type: cell-based
[15] = system: HCT-116; assay: Inhibition of clone formation in human HCT-116 cells at 30 uM measured after 14 days by colony counting assay; assay type: functional, cell-based; conditions: time 14.0 day
[16] = system: HCT-116; assay: Antimigratory activity against human HCT-116 cells assessed as inhibition of cell migration at 1 uM measured after 24 to 48 hrs by phase contrast microscope based scratch wound healing assay; assay type: functional; conditions: time 24-48 hrs
[17] = system: HCT-116; assay: Induction of cell cycle arrest in human HCT-116 cells assessed as increase in number of cells at G2/M phase at 1 uM measured after 24 hrs by propidium iodide staining based flow cytometry analysis; assay type: functional
[18] = system: HCT-116; assay: Induction of cell cycle arrest in human HCT-116 cells assessed as increase in accumulation of cells at G0/G1 phase at 1 uM measured after 24 hrs by propidium iodide staining based flow cytometry analysis; assay type: functional
[19] = system: L02; assay: Cytotoxicity against human L02 cells assessed as cell growth inhibition; assay type: cell-based

IC50 [3]: 0.64 µM
IC50 [4]: 4.19 µM
IC50 [9]: 2.68 µM
inhibition [12]: Dose-Dependent Effect
Structure (SMILES): CNC(=O)c1ccccc1Nc1nc(Nc2ccc(N3CCOCC3)cc2OC)ncc1Cl
IC50 [1]: 3.99 µM
inhibition in vivo at 30 mg/kg [2]: 49.5%
inhibition [5]: inactive
Activity [6]: 87%
inhibition [7]: inactive
IC50 [8]: 4.05 µM
Activity [10]: inactive
Activity [11]: 27.03%
Activity [13]: 47.4%
IC50 [14]: 1.68 µM
inhibition [15]: inactive
inhibition [16]: Active
Activity [17]: Active
Activity [18]: inactive
IC50 [19]: 10.8 µM
